Data on five compounds can be found in patent US5215964A, “Peptides useful in regulating the immune and nervous systems” (Immunobiology Research Institute, Inc., priority 1991, dated 1993).

One series deals with γ TP receptor. The series can be described thus: Neuromuscular (electromyographic) assay. It counts as in vivo. The conditions noted are these: i.v. or s.c. in mice, electromyography 18 hours after administration. On the procedure:
The neuromuscular assay is performed to determine the effect, if any, of different peptides and dosages of peptides on the γ TP receptor according to the invention. This assay is carried out as follows. Various doses of a selected peptide of this invention, prepared as described in the preceding examples, are dissolved in normal saline and injected either intravenously (i.v.) or subcutaneously (s.c.) into mice (or other selected laboratory animals). The electromyographic assay is performed according to G. Goldstein et al, J. Jeurol. and Neurosurg. Physchiat., 31:453-459 (1968) 18 hours after administration of the peptide.
Mice of either sex, weighing […], are anesthetized with 150 μl of 5% sodium pentobarbital (Abbott Laboratories, Chicago, Ill.). The nerve is stimulated with a Grass S-48 stimulator and a Grass SIV-5A stimulus isolation unit (Grass Instrument Co., Quincy, Mass.) and the electromyographic response is recorded with a Tektronix storage oscilloscope-5111 coupled to a 5A21N differential amplifier and a 5B10N time base (Tektronix, Beaverton, Oreg.).
Groups of five or more mice are used for each experiment. […] The mean, standard deviation and statistical significance of differences between experimental animals and controls are assessed by one-way analysis of variance based on ratio. […]

For a further series, the system named is MOLT-4 T cell line. The series can be described thus: Cyclic GMP assay, MOLT-4 cell line. It counts as cell-based, human. The conditions noted are these: positive = cyclic GMP greater than 2 standard deviations above parallel negative control; peptide 1, 10, 100 μg/mL. An excerpt: This assay measures the ability of a peptide of this invention to bind to the cell membrane receptor of the intact MOLT-4 cell and selectively stimulate production of cyclic GMP, as does human thymopoietin.
The MOLT-4 cell line was obtained from the American Type Culture Collection of Rockville, Md. MOLT-4 cells were freshly seeded and grown for 3 days with harvesting as described in T. Audhya et al, Arch. Biochem Biophys., 234: 167-177 (1984). The cells were washed 3 times in PBS and resuspended in RPMI 1640 at a concentration of […]; cells/ml and were allowed to equilibrate at 37° C. for 30 minutes before the addition of the test pentapeptides or control peptides, in 25 μl to yield a final concentration of 1, 10, and 100 μg/mL. The incubation was allowed to proceed in a shaking water bath for 4-5 minutes and was then terminated by addition of 1 ml ice-cold TCA (10 percent in H2 O).
The cells in TCA were homogenized and sonicated to release cyclic nucleotide. The suspension was centrifuged at 3000×g for 20 minutes at 4° C. The resulting precipitate was dissolved in 0.1N NaOH to determine the protein content. […]
A threshold activity was determined for each peptide tested. […] Test results were considered positive if the level of cyclic GMP was greater than […] that determined for the parallel negative control.

In the next series the test system is CEM T cell line. The series can be described thus: Cyclic GMP assay, CEM cell line. It counts as cell-based, human. The conditions noted are these: positive = cyclic GMP greater than 2 standard deviations above parallel negative control; peptide 1, 10, 100 μg/mL.
Another series can be described thus: in vitro. The conditions noted are these: rat, real gastrointestinal fluid or homogenate, pH 5.5.
The nature of series [1]: Enzymatic stability, duodenum in diffusion cell. The conditions noted are these: for intact peptide: rat duodenum, phosphate buffer pH 5.5, 1 mg/mL.
Experimental: (§1) A rat duodenum was opened and attached to a 3.5 mL diffusion cell [Crownglass, N.J.] with buffer in both chambers. The selected test peptide in phosphate buffer (pH 5.5) was applied to both the cells to a final concentration of 1 mg/mL, and samples were taken at 0, 2 and 4 hours. The aliquots were subjected to high performance liquid chromatography (HPLC) with ultraviolet detection at 220 nm. The solvent system for thymopentin was phosphate buffer and methanol.

Ends that are not written are not given here. Peptide text beside a SMILES is read from it. * marks the point of attachment. Decanoyl = CCCCCCCCCC(=O)*

Experimental for in vitro: as §1

As to `CCCCCCCCCC(=O)N[C@@H](CCCNC(=N)N)C(=O)N1CCC[C@H]1C(=O)N[C@@H](CC(=O)O)C(=O)N1CCC[C@H]1C(=O)N[C@@H](Cc1ccccc1)C(N)=O` [Decanoyl-Arg-Pro-Asp-Pro-Phe-NH2] (Decanoyl-RPDPF-NH2), the “thymopoietin/thymopentin-like results on the neuromuscular assay (γ)” value with γ TP receptor is listed as “γ-positive”. Besides, the “inducing increased cGMP levels in the human MOLT-4 T cell line (β)” value with MOLT-4 T cell line was “positive”. In the series on CEM T cell line, the “inducing increased cGMP levels in the human CEM T cell line (α)” value (shortened to “inducing increased cGMP levels … (α)”) was “positive”.

As for “Ac-RPDPF-NH2 [Acetyl-Arg-Pro-Asp-Pro-Phe-NH2]”, in the series “in vitro”, the share remaining (as a rule, what is left of the initial amount, in per cent) at 2 h, 1 mg/mL was roughly 100% and the share remaining at 4 h, 1 mg/mL was roughly 90%.

Turning to “Ac-RPTPF-NH2 [Acetyl-Arg-Pro-Thr-Pro-Phe-NH2]”, in the series with CEM T cell line, the “inducing increased cGMP levels … (α)” value is “positive”.

For the compound “Ac-RPTPY-NH2 [Acetyl-Arg-Pro-Thr-Pro-Tyr-NH2]”, the “inducing increased cGMP levels … (α)” value in the series on CEM T cell line is on record as “positive”.

Turning to RKDVY [TP-5, thymopentin], the values for the intact peptide in series [1] (0 hours) and in series [1] (4 hours) were 100% and “negligible”, respectively. In addition, the fraction remaining at 2 h, 1 mg/mL in series [1] (rat, rat duodenum mounted in a diffusion cell, pH 5.5) was 20%.
